What is called MIC is the lowest concentration found to suppress growth. Higher therefore signals a less susceptible organism.

≈ marks a conversion by molar mass, not a printed value. Where only a bound is given, the exact number is not on record here.

Holding throughout (format): functional
Experiment [1] has as its system Staphylococcus aureus. In words: Antibacterial activity against Staphylococcus aureus ATCC 13709 after 24 hrs at 37 degC by serial dilution method. The note with it: ATCC 13709, 24 h.
The test system of experiment [2] is Candida tropicalis. In words: Antifungal activity against Candida tropicalis DSM1346 after 24 hrs at 37 degC by serial dilution method.
Experiment [3] deals with Candida albicans. The experiment is described as follows: Antifungal activity against Candida albicans ATCC 10231 after 24 hrs at 37 degC by serial dilution method. The conditions noted are these: ATCC 10231, 24 h.
The test system of experiment [4] is Aspergillus niger. The experiment is described as follows: Inhibition of spore germination of Aspergillus niger DSM737 after 24 hrs at 27 degC by serial dilution method. The conditions noted are these: DSM737, 24 h.
Experiment [5] relates to Bacillus cereus. The experiment is described as follows: Antibacterial activity against Bacillus cereus DSM318 after 24 hrs at 37 degC by serial dilution method. The note with it: DSM318, 24 h.
Experiment [6] has as its system Agrobacterium tumefaciens. The experiment is described as follows: Antibacterial activity against Agrobacterium tumefaciens ATCC 23308 after 24 hrs at 37 degC by serial dilution method. The conditions noted are these: ATCC 23308, 24 h.
The test system of experiment [7] is Rhodotorula glutinis. The experiment is described as follows: Antifungal activity against Rhodotorula glutinis DSM70398 after 24 hrs at 27 degC by serial dilution method.
In experiment [8] the test system is Aspergillus ochraceus. In words: Inhibition of spore germination of Aspergillus ochraceus DSM63304 after 24 hrs at 27 degC by serial dilution method.

For `CC#CC#CC#C[C@@H]1O[C@@H]1CO` (relative stereo), the MIC is > 100 µg/mL in experiment [1]; 50 µg/mL (≈ 312 µM) in experiment [2]; 50 µg/mL (≈ 312 µM) in experiment [3]; 1 µg/mL (≈ 6.24 µM) in experiment [4]; > 100 µg/mL in experiment [5]; > 100 µg/mL in experiment [6]. In addition, the values for the minimum inhibitory concentration (MIC) in experiment [7] and in experiment [8] were 10 µg/mL (≈ 62.4 µM) and 1 µg/mL (≈ 6.24 µM), respectively.

(Values after ChEMBL document CHEMBL1149050, “An antifungal polyacetylenic compound from the culture filtrate of the fungus Trametes pubescens” (1994).)
